In the NIST ThermoML archive (doi:10.1021/je500395f):

Settings: Fluid (supercritical or subcritical phases), Coaxial cylinder method

CCC [propane]
Settings	thermal conductivity [W/m/K]
373.2 K, 4574 kPa	0.0745
373.2 K, 4590 kPa	0.0724
373.2 K, 4605 kPa	0.07168
373.2 K, 4610 kPa	0.07119
373.2 K, 4640 kPa	0.06975
373.2 K, 4660 kPa	0.06887
373.2 K, 4680 kPa	0.06797
373.2 K, 4740 kPa	0.06707
373.2 K, 4900 kPa	0.06613
373.2 K, 5100 kPa	0.06615
373.2 K, 5540 kPa	0.06698
373.2 K, 6300 kPa	0.06878
373.2 K, 6700 kPa	0.06932
373.2 K, 7400 kPa	0.07086
373.2 K, 7780 kPa	0.07152
373.2 K, 8900 kPa	0.0735
373.2 K, 10500 kPa	0.0764
373.2 K, 11900 kPa	0.07818
374.28 K, 2900 kPa	0.03164
374.28 K, 3087 kPa	0.03271
374.28 K, 3424 kPa	0.03453
374.28 K, 3945 kPa	0.03887
374.28 K, 3975 kPa	0.03918
374.28 K, 4080 kPa	0.0412
374.28 K, 4200 kPa	0.04376
374.28 K, 4280 kPa	0.04558
374.28 K, 4320 kPa	0.04719
374.28 K, 4380 kPa	0.04961
374.28 K, 4425 kPa	0.05238
374.28 K, 4440 kPa	0.05378
374.28 K, 4450 kPa	0.05483
374.28 K, 4460 kPa	0.05626
374.28 K, 4475 kPa	0.05823
374.28 K, 4485 kPa	0.0596
374.28 K, 4510 kPa	0.06324
374.28 K, 4515 kPa	0.06424
374.28 K, 4518 kPa	0.06502
374.28 K, 4520 kPa	0.06551
374.28 K, 4535 kPa	0.06874
374.28 K, 4545 kPa	0.07123
374.28 K, 4550 kPa	0.07267
374.28 K, 4560 kPa	0.07525
374.28 K, 4565 kPa	0.07664
374.28 K, 4570 kPa	0.07786
374.28 K, 4575 kPa	0.07875
374.28 K, 4580 kPa	0.07954
374.28 K, 4585 kPa	0.08016
374.28 K, 4590 kPa	0.08076
374.28 K, 4595 kPa	0.08112
374.28 K, 4600 kPa	0.08148
374.28 K, 4605 kPa	0.0816
374.28 K, 4610 kPa	0.08117
374.28 K, 4615 kPa	0.08036
374.28 K, 4620 kPa	0.07961
374.28 K, 4625 kPa	0.07854
374.28 K, 4630 kPa	0.07755
374.28 K, 4640 kPa	0.07599
374.28 K, 4650 kPa	0.07477
374.28 K, 4670 kPa	0.07334
374.28 K, 4685 kPa	0.0724
374.28 K, 4710 kPa	0.07096
374.28 K, 4720 kPa	0.07026
374.28 K, 4740 kPa	0.06979
374.28 K, 4760 kPa	0.06909
374.28 K, 4780 kPa	0.06868
374.28 K, 4820 kPa	0.06778
374.28 K, 4900 kPa	0.06693
374.28 K, 5000 kPa	0.06603
374.28 K, 5200 kPa	0.06584
374.28 K, 5500 kPa	0.06645
374.28 K, 5798 kPa	0.06707
374.28 K, 6323 kPa	0.06829
374.28 K, 6760 kPa	0.06867
375.1 K, 3780 kPa	0.03695
375.1 K, 3790 kPa	0.03732
375.1 K, 3794 kPa	0.03755
375.1 K, 4210 kPa	0.04276
375.1 K, 4300 kPa	0.04526
375.1 K, 4315 kPa	0.04587
375.1 K, 4350 kPa	0.04739
375.1 K, 4400 kPa	0.04912
375.1 K, 4450 kPa	0.05149
375.1 K, 4510 kPa	0.05552
375.1 K, 4520 kPa	0.05654
375.1 K, 4525 kPa	0.0572
375.1 K, 4535 kPa	0.05845
375.1 K, 4545 kPa	0.05974
375.1 K, 4550 kPa	0.06052
375.1 K, 4555 kPa	0.06115
375.1 K, 4560 kPa	0.06195
375.1 K, 4565 kPa	0.06257
375.1 K, 4570 kPa	0.06325
375.1 K, 4575 kPa	0.06422
375.1 K, 4580 kPa	0.06509
375.1 K, 4585 kPa	0.06611
375.1 K, 4590 kPa	0.06706
375.1 K, 4595 kPa	0.06795
375.1 K, 4600 kPa	0.06877
375.1 K, 4605 kPa	0.06965
375.1 K, 4610 kPa	0.07049
375.1 K, 4620 kPa	0.07215
375.1 K, 4625 kPa	0.07291
375.1 K, 4630 kPa	0.07371
375.1 K, 4635 kPa	0.07453
375.1 K, 4640 kPa	0.07507
375.1 K, 4645 kPa	0.07542
375.1 K, 4650 kPa	0.07583
375.1 K, 4655 kPa	0.07611
375.1 K, 4660 kPa	0.07639
375.1 K, 4665 kPa	0.07653
375.1 K, 4670 kPa	0.07625
375.1 K, 4675 kPa	0.07597
375.1 K, 4680 kPa	0.07569
375.1 K, 4685 kPa	0.07544
375.1 K, 4695 kPa	0.07466
375.1 K, 4700 kPa	0.07412
375.1 K, 4710 kPa	0.07346
375.1 K, 4720 kPa	0.07261
375.1 K, 4740 kPa	0.07111
375.1 K, 4750 kPa	0.07062
375.1 K, 4770 kPa	0.06965
375.1 K, 4790 kPa	0.06852
375.1 K, 4800 kPa	0.06807
375.1 K, 4850 kPa	0.06676
375.1 K, 4890 kPa	0.06599
375.1 K, 4920 kPa	0.06554
375.1 K, 4950 kPa	0.06533
375.1 K, 5040 kPa	0.06533
375.1 K, 5140 kPa	0.0653
375.1 K, 5160 kPa	0.06529
375.1 K, 5226 kPa	0.06525
375.1 K, 5322 kPa	0.06576
375.1 K, 5580 kPa	0.06644
375.1 K, 5830 kPa	0.06691
375.1 K, 6480 kPa	0.06842
375.1 K, 6540 kPa	0.06846
375.1 K, 7140 kPa	0.06958
375.1 K, 8020 kPa	0.07114
375.1 K, 8950 kPa	0.07271
375.1 K, 9500 kPa	0.07355
375.1 K, 9700 kPa	0.0739
375.1 K, 10360 kPa	0.075
375.9 K, 3110 kPa	0.03373
375.9 K, 3134 kPa	0.0338
375.9 K, 3250 kPa	0.03412
375.9 K, 3300 kPa	0.03433
375.9 K, 3550 kPa	0.03563
375.9 K, 3600 kPa	0.03595
375.9 K, 3800 kPa	0.03747
375.9 K, 4000 kPa	0.03934
375.9 K, 4050 kPa	0.03986
375.9 K, 4125 kPa	0.04091
375.9 K, 4250 kPa	0.04345
375.9 K, 4350 kPa	0.04589
375.9 K, 4400 kPa	0.04729
375.9 K, 4450 kPa	0.04877
375.9 K, 4510 kPa	0.05175
375.9 K, 4540 kPa	0.0535
375.9 K, 4560 kPa	0.05503
375.9 K, 4570 kPa	0.05607
375.9 K, 4580 kPa	0.05714
375.9 K, 4590 kPa	0.05826
375.9 K, 4600 kPa	0.05949
375.9 K, 4620 kPa	0.06128
375.9 K, 4630 kPa	0.06278
375.9 K, 4640 kPa	0.06448
375.9 K, 4650 kPa	0.06572
375.9 K, 4660 kPa	0.06701
375.9 K, 4670 kPa	0.06835
375.9 K, 4680 kPa	0.06967
375.9 K, 4690 kPa	0.07058
375.9 K, 4700 kPa	0.07156
375.9 K, 4720 kPa	0.07283
375.9 K, 4740 kPa	0.07257
375.9 K, 4760 kPa	0.07206
375.9 K, 4780 kPa	0.07106
375.9 K, 4800 kPa	0.0705
375.9 K, 4820 kPa	0.06995
375.9 K, 4840 kPa	0.06936
375.9 K, 4880 kPa	0.06835
375.9 K, 4950 kPa	0.06708
375.9 K, 5050 kPa	0.06621
375.9 K, 5100 kPa	0.0662
375.9 K, 5200 kPa	0.06603
375.9 K, 5250 kPa	0.06588
375.9 K, 5500 kPa	0.06634
375.9 K, 5550 kPa	0.06631
375.9 K, 5700 kPa	0.06671
375.9 K, 5820 kPa	0.06682
375.9 K, 5900 kPa	0.06696
375.9 K, 6000 kPa	0.06714
375.9 K, 6200 kPa	0.06746
375.9 K, 6800 kPa	0.06884
375.9 K, 7200 kPa	0.0696
375.9 K, 7800 kPa	0.07056
375.9 K, 8500 kPa	0.072
375.9 K, 9000 kPa	0.07288
375.9 K, 9190 kPa	0.07314
375.9 K, 9806 kPa	0.07405
375.9 K, 10000 kPa	0.07439
375.9 K, 11000 kPa	0.07591
375.9 K, 11028 kPa	0.07597
375.9 K, 11500 kPa	0.0765
375.9 K, 12000 kPa	0.07724
375.9 K, 13000 kPa	0.07845
381 K, 3253 kPa	0.03426
381 K, 3260 kPa	0.03429
381 K, 3320 kPa	0.03451
381 K, 3428 kPa	0.03498
381 K, 3580 kPa	0.03558
381 K, 3820 kPa	0.03665
381 K, 3880 kPa	0.03705
381 K, 4040 kPa	0.03825
381 K, 4100 kPa	0.0389
381 K, 4220 kPa	0.04027
381 K, 4520 kPa	0.04459
381 K, 4560 kPa	0.04539
381 K, 4600 kPa	0.04618
381 K, 4660 kPa	0.04756
381 K, 4740 kPa	0.04988
381 K, 4780 kPa	0.05126
381 K, 4800 kPa	0.05187
381 K, 4860 kPa	0.05418
381 K, 4880 kPa	0.05506
381 K, 4900 kPa	0.05594
381 K, 4920 kPa	0.05685
381 K, 4960 kPa	0.05866
381 K, 5000 kPa	0.06046
381 K, 5020 kPa	0.06124
381 K, 5040 kPa	0.06198
381 K, 5060 kPa	0.06268
381 K, 5100 kPa	0.06374
381 K, 5150 kPa	0.06448
381 K, 5200 kPa	0.06448
381 K, 5250 kPa	0.06475
381 K, 5300 kPa	0.06444
381 K, 5350 kPa	0.06439
381 K, 5390 kPa	0.06427
381 K, 5450 kPa	0.06435
381 K, 5550 kPa	0.06436
381 K, 5700 kPa	0.06435
381 K, 5900 kPa	0.06423
381 K, 6200 kPa	0.06503
381 K, 6500 kPa	0.06554
381 K, 6900 kPa	0.0664
381 K, 7162 kPa	0.06699
381 K, 7300 kPa	0.06714
381 K, 7583 kPa	0.06767
381 K, 9036 kPa	0.07035
381 K, 10110 kPa	0.07235
381 K, 11000 kPa	0.07371
381 K, 12000 kPa	0.07531
381 K, 14750 kPa	0.07855
